{"source": "patent US20110207744A1", "about": "“Method for treating cognitive deficits” (H. Lundbeck A/S, priority 2008, published 2011)", "key": {"[1]": {"system": "subchronic PCP treated rats", "experiment": "attentional set-shifting in subchronic PCP rat disease model (executive functioning)", "assay_type": "in vivo", "settings": "for EDS discrimination performance (trials to criterion) vs PCP+vehicle group: 30 min before test", "from_the_text": "The attentional set-shifting paradigm is an animal model which allows assessment of executive functioning via intra-dimensional (ID) versus extra-dimensional (ED) shift discrimination learning. A schizophrenia-disease-like animal model with subchronic phencyclidine (PCP) administration plus washout period is applied.\nAccordingly, the cognitive enhancing properties of a compound can be investigated by testing whether the compound is attenuating the “attentional performance impairment” induced by subchronic PCP administration in rats.\nMethodology. In vivo assessment of “attentional set-shifting performance” was conducted as described by Rodefer et al. (Eur. J. Neurosci. 21:1070-1076 (2005)), and was based on a modified version of the task designed by Birrell & Brown (J. Neurosci. 20:4320-4324 (2000)). Briefly, Male Long-Evans rats (Harlan, Indianapolis, Ind.) weighing approximately 250 g at the beginning of the study in four groups (n=12 each group) were used. After habituating to the colony room environment, rats received a series of subchronic injections of PCP (5 mg/kg, i.p.) or saline twice daily for 7 days, followed by a washout period of 10 days before beginning the set-shifting procedure in which animals were required to dig in a pot to retrieve a food reward (half of a Honey Nut Cheerio® (General Mills, Minneapolis, Minn., USA)) using either digging medium or scented odor as the dimensional cue. The test chamber was a Plexiglas® box (50×37.5×25 cm) with an opaque barrier separating one-third of the box from the rest (along the long axis of the box). […]\nHabituation was performed for several days before testing; a pot filled with wood chip bedding used in the rats' home cages and baited with several Cheerios® was placed in each rat's cage, to accustom them to retrieving food rewards from the pots. […] The rats therefore could investigate the digging medium with paws or snout before executing a “dig” response, and these choices were not scored. […]"}, "[2]": {"system": "sub-chronic PCP treated rats", "experiment": "novel object recognition (NOR) test in sub-chronic PCP treated rats", "assay_type": "in vivo, rat", "experimental": "The NOR test was performed as described in the above cited reference (Grayson 2007).\nAcquisition trial. […] Data are expressed as mean±s.e.m. (n=9-10 per group) and were analysed by ANOVA and post-hoc student's t-test.\nRetention trial. […] Data are expressed as mean±s.e.m. (n=9-10 per group) and were analysed by ANOVA and post-hoc student's t-test.\nData are expressed as the mean±s.e.m. (n=9-10 per group) and were analysed using ANOVA followed by post-hoc Dunnett's t-test.\nLocomotor activity. […] Data are expressed as mean±s.e.m (n=9-10 per group) and were analysed by ANOVA and post-hoc Dunnett's t-test."}, "D2 receptor": {"molecular_target": "D2 receptor (Homo sapiens, UniProt P14416)", "sequence (P14416 whole entry)": "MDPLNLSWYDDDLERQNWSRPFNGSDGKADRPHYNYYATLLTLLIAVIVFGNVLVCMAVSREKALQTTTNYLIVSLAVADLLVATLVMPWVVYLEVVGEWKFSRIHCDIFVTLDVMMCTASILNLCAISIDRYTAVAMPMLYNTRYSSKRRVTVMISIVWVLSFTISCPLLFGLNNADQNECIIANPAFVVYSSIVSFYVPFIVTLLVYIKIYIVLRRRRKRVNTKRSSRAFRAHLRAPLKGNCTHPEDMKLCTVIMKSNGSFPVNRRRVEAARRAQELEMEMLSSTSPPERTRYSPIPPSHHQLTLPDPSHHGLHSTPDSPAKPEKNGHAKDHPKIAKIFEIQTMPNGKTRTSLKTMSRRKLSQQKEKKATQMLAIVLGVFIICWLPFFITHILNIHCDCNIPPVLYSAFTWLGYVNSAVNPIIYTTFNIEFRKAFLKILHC", "experiment": "PET study, D2 receptor occupancy (11C-raclopride tracer)", "assay_type": "in vivo", "settings": "healthy subjects, read-out: D2 receptor occupancy in the putamen"}, "rats": {"system": "rats", "experiment": "condition avoidance response (CAR) model", "assay_type": "in vivo, rat", "settings": "at very low levels of D2 receptor occupancy", "description": "The compound of formula I is a putative antipsychotic compound with affinity for both dopamine D1 and D2 receptors."}, "D1 receptor": {"molecular_target": "D1 receptor (Homo sapiens, UniProt P21728)", "sequence (P21728 whole entry)": "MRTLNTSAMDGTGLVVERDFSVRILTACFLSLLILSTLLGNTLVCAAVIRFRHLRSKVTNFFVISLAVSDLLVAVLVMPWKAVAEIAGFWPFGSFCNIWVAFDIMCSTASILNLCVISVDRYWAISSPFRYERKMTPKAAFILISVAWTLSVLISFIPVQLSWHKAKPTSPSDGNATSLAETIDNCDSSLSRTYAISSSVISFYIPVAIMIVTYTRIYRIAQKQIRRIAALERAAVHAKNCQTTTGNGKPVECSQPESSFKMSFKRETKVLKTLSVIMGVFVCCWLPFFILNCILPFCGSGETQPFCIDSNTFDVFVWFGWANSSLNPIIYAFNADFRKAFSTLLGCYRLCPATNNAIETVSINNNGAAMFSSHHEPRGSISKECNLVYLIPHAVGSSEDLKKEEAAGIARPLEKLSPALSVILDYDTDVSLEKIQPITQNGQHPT", "experiment": "PET study, D1 receptor occupancy (11C-SCH23390 tracer)", "assay_type": "in vivo", "settings": "healthy subjects, read-out: D1 receptor occupancy in putamen"}, "dopamine D2 receptors": {"molecular_target": "dopamine D2 receptors (Homo sapiens, UniProt P14416)", "sequence (P14416 whole entry)": "as the sequence (P14416 whole entry) above", "settings": "WO 2005/016900; cited from earlier work"}, "dopamine D1 receptors": {"molecular_target": "dopamine D1 receptors (Homo sapiens, UniProt P21728)", "sequence (P21728 whole entry)": "as the sequence (P21728 whole entry) above", "settings": "WO 2005/016900; cited from earlier work"}, "α1 adrenoceptors": {"system": "α1 adrenoceptors", "settings": "WO 2005/016900; cited from earlier work"}, "5-HT2 receptor": {"system": "5-HT2 receptor", "settings": "WO 2005/016900; cited from earlier work"}, "[3]": {"system": "subchronic PCP treated rats", "settings": "given acutely; Rodefer et al. (2008); cited from earlier work"}, "[4]": {"settings": "2 mg/day given daily for 18 days"}, "[5]": {"settings": "10 mg/day given daily for 18 days"}}, "data": [{"smiles": "CN1CCN([C@@H]2C[C@@H](c3ccccc3)c3ccc(Cl)cc32)CC1(C)C", "note": "[Compound I, trans-4-((1R,3S)-6-chloro-3-phenylindan-1-yl)-1,2,2-trimethylpiperazine]", "values": [{"measurement": "EDS discrimination performance (trials to criterion) vs PCP+vehicle group", "setting": "[1]; 1.25 mg/kg s.c., t=3.09, p<0.05", "value": "significantly attenuated"}, {"measurement": "EDS discrimination performance (trials to criterion) vs PCP+vehicle group", "setting": "[1]; 2.5 mg/kg s.c., t=3.80, p<0.01", "value": "significantly attenuated"}, {"measurement": "behavior on all other discrimination problems", "setting": "[1]; 1.25 or 2.5 mg/kg s.c., all ps>0.05", "value": "No evidence was found that either dose of Compound I impacted behavior"}, {"measurement": "locomotor activity (total number of line crossings)", "setting": "[2]; 2.5 mg/kg s.c., p<0.05 compared to vehicle", "value": "significantly reduced"}, {"measurement": "time spent exploring the identical objects, acquisition phase", "setting": "[2]; acute 0.5-2.5 mg/kg s.c.", "value": "no significant difference"}, {"measurement": "sub-chronic PCP-induced impairment, novel vs familiar object exploration, retention phase", "setting": "[2]; acute, all three doses 0.5, 1.25, 2.5 mg/kg s.c.", "value": "significantly attenuated"}, {"measurement": "receptor occupancy at 2 mg", "setting": "D2 receptor; [4]", "value": 11, "unit": "%"}, {"measurement": "receptor occupancy at 10 mg", "setting": "D2 receptor; [5]", "value": 43, "unit": "%"}, {"measurement": "antipsychotic activity in CAR model", "setting": "rats", "value": "possesses antipsychotic activity"}, {"measurement": "receptor occupancy at 2 mg", "setting": "D1 receptor; [4]", "value": 32, "unit": "%"}, {"measurement": "receptor occupancy at 10 mg", "setting": "D1 receptor; [5]", "value": 69, "unit": "%"}, {"measurement": "affinity for dopamine D2 receptors (antagonist)", "setting": "dopamine D2 receptors", "value": "high affinity"}, {"measurement": "affinity for dopamine D1 receptors (antagonist)", "setting": "dopamine D1 receptors", "value": "high affinity"}, {"measurement": "affinity for α1 adrenoceptors", "setting": "α1 adrenoceptors", "value": "high affinity"}, {"measurement": "affinity for the 5-HT2 receptor (antagonist)", "setting": "5-HT2 receptor", "value": "high affinity"}]}, {"smiles": "CN1CCN(C2=Nc3cc(Cl)ccc3Nc3ccccc32)CC1", "note": "[clozapine, reference compound]", "values": [{"measurement": "PCP-induced reduction of discrimination index", "setting": "[2]; 2.5 mg/kg i.p.", "value": "no significant effect"}]}, {"smiles": "O=C(CCCN1CCC(O)(c2ccc(Cl)cc2)CC1)c1ccc(F)cc1", "note": "[haloperidol]", "values": [{"measurement": "reversing PCP-disrupted attentional performance", "setting": "[3]", "value": "ineffective"}]}, {"smiles": "Cc1nc2n(c(=O)c1CCN1CCC(c3noc4cc(F)ccc34)CC1)CCCC2", "note": "[risperidone]", "values": [{"measurement": "reversing PCP-disrupted attentional performance", "setting": "[3]", "value": "ineffective"}]}]}
